Columns and labels:
[1] = Antagonist activity at CRTh2 in human peripheral blood assessed as inhibition of PGD2-induced eosinophil shape change at room temperature by flow cytometry
[2] = Inhibition of CRTH2 receptor-mediated chemotaxis in human basophils

Row | IC50 [1] [nM] | IC50 [2] [nM] | SMILES
1 | 18 |  | Cc1c(-c2cn(CC(C)(C)C)c(=O)c3ccccc23)c2cc(F)ccc2n1CC(=O)O
2 | 3 |  | Cc1c(-c2cn(CCCC(F)(F)F)c(=O)c3ccccc23)c2cc(F)ccc2n1CC(=O)O
3 | 19 |  | Cc1c(-c2cn(CC(F)(F)F)c(=O)c3ccccc23)c2cc(F)ccc2n1CC(=O)O
4 | 8 | 1.2 | Cc1c(-c2cn(C(C)C)c(=O)c3ccccc23)c2cc(F)ccc2n1CC(=O)O

— BindingDB's records for doi:10.1021/jm401509e (Pfizer, 2014)
